In US5550128A, “Enantiomers of gamma methylene 10-deaza aminopterin and process for preparing the same” (priority 1994, dated 1996):

What was measured:
[1] = test system: human tumor cell lines in culture; assay: Human Tumor Disease Oriented in vitro screen, panel as a whole; type: cell-based; settings: relative to methotrexate, or enantiomer comparison
Procedure: Further, by analogy to methotrexate (rheumatrex) L-MDAM should be useful in the treatment of autoimmune diseases such as rheumatoid arthritis and inflammatory diseases such as asthma.
A 48 h continuous drug exposure protocol was used combined with an SR13
protein assay to estimate cell growth or viability.

[2] = animals; relative to MTX; cited from earlier work
[3] = biological target: T1, Recombinant Human Dihydrofolate Reductase (Homo sapiens, UniProt P00374); assay: Inhibition of recombinant human dihydrofolate reductase, spectrophotometric enzyme assay; type: biochemical
T1 sequence (P00374 1-187): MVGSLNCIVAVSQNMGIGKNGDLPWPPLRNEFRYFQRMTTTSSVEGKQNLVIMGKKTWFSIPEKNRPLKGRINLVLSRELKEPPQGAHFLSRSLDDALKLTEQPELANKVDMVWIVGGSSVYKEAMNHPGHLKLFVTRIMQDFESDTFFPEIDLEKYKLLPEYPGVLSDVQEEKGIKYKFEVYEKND
Procedure: Enzyme assay was performed spectrophotometrically in a solution containin
50 μM dihydrofolate, 80 μM NADPH, 0.05 M Tris HCl. 0.01 M
2mercaptoethanol and 0.001 M EDTA at pH 7.4 at 30°. The reaction
Pure human recombinant enzyme was used.

[4] = test system: Human HCT-8 Ileocecal Xenograft; assay: Antitumor activity by continuous i.v. infusion (C.I.) × 5d against human HCT-8 ileocecal xenograft; type: in vivo, human (xenograft in nude mice); settings: C.I. × 5d
Excerpt: Antitumor Activity of MDAM by C.I. × 5d
against HUMAN HCT-8 Ileocecal Xenograft
MIR: Maximum inhibitory rate.
TD: Tumor doubling time.
CR: Complete Regression.
PR: Partial Regression.
(§1) MWL: Maximum Weight Loss.

[5] = test system: L1210 leukemia; settings: animals bearing L1210 leukemia; cited from earlier work
[6] = test system: transport of radiolabeled folinic acid to H35 hepatoma cells; assay: Inhibition of transport of radiolabeled folinic acid to H35 hepatoma cells; type: cell-based; settings: H35 hepatoma cells; read-out: l50 value, inhibition of transport of radiolabeled folinic acid
Procedure: (§2) Independent, further evidences to the identity of L-MDAM as the biologically active enantiomer of the racemic mixture of D,L-MDAM (previously described as MDAM; Ref, U.S. Pat. No. 4,996,207) was obtained by the following data. […] The cytotoxicity of L-MDAM versus D,L-MDAM was also compared. […] The l50 value for growth inhibition (Gl50) was 39 nM for D,L-MDAM. […] Taken together, these unexpected and novel results establish that the biologically active compound present in the racemic mixture of MDAM is the L-enantiomer described in claim number 1.

[7] = test system: H35 hepatoma cells; assay: Growth inhibition of H35 hepatoma cells in culture; type: cell-based; settings: H35 hepatoma cells in culture, identical conditions; read-out: l50 value for growth inhibition (Gl50)
Procedure: as §2

[8] = test system: Human HCT-8 Ileocecal Xenograft; assay: Antitumor activity by I.V. push, daily × 5, against human HCT-8 ileocecal xenograft; settings: for CR: Complete Regression / MIR: Maximum inhibitory rate / PR: Partial Regression / TD: Tumor doubling time: i.v. push daily × 5
Excerpt: [M. G. Nair and Ann Abraham, U.S. Pat. No. 4,996,207 (1991); M. G. Nair, U.S. Pat. No. 5,073,554 (1991 )]. […] [Ann Abraham, M. G. Nair, et al. Advanced in Exp. Med. and Biol. 663-666 (1993)].
MIR: Maximum inhibitory rate. TD: Tumor doubling time.
CR: Complete Regression. PR Partial Regression.
as §1

[9] = test system: P388 leukemia; settings: animals bearing P388 leukemia; cited from earlier work
[10] = single iv push daily for 5 days at the maximum tolerated dose, nude mice

## C=C(CC(NC(=O)c1ccc(CCc2cnc3nc(N)nc(N)c3n2)cc1)C(=O)O)C(=O)O (racemic) [D,L-MDAM, γ-methylene-10-deazaaminopterin]
[1]
  activity/potency in inhibiting growth of human tumor cell lines (in words): more potent activity relative to methotrexate in several tumor cell lines
[1]; listed as MDAM
  activity/potency in inhibiting growth of human tumor cell lines (in words): equivalent or greater potency than methotrexate
[2]
  tolerability: tolerated by animals at higher doses
[3]; 50 μM dihydrofolate, 80 μM NADPH, pH 7.4, 30°
  IC50: 44 nM
[3]; ratio to MTX
  IC50 Compound/IC50 MTX: 2.58
[4]; 0.5 mg/kg
  CR: Complete Regression: 0%
  MIR: Maximum inhibitory rate: 49.8 ± 8.2%
  PR: Partial Regression: 0%
  TD: Tumor doubling time: 5.3 ± 0.9 days
[4]; 1 mg/kg
  CR: Complete Regression: 0%
  MIR: Maximum inhibitory rate: 56.4 ± 7.8%
  PR: Partial Regression: 0%
  TD: Tumor doubling time: 6.0 ± 0.7 days
[4]; 2 mg/kg(/day)
  CR: Complete Regression: 38%
  PR: Partial Regression: 38%
[4]; 2 mg/kg
  MIR: Maximum inhibitory rate: 81.7 ± 7.2%
  TD: Tumor doubling time: 12.4 ± 5.8 days
[5]
  in vivo antitumor activity relative to MTX: superior in vivo antitumor activity relative to the polyglutamylatable MTX
[6]
  IC50: 5500 nM
[7]
  IC50: 39 nM
[8]; 30 mg/kg
  CR: Complete Regression: 0%
  MIR: Maximum inhibitory rate: 58.8 ± 9.2%
  PR: Partial Regression: 0%
  TD: Tumor doubling time: 6.2 ± 0.9 days
[8]; 40 mg/kg
  CR: Complete Regression: 25%
  MIR: Maximum inhibitory rate: 79.2 ± 7.5%
  PR: Partial Regression: 25%
  TD: Tumor doubling time: 7.1 ± 0.5 days
[8]; 50 mg/kg
  CR: Complete Regression: 25%
  MIR: Maximum inhibitory rate: 79.2 ± 6.2%
  PR: Partial Regression: 50%
  TD: Tumor doubling time: 8.4 ± 0.4 days
[8]; [10]
  antitumor response: 75%
  complete tumor regression: 25%
[9]
  in vivo antitumor activity relative to MTX: superior in vivo antitumor activity relative to the polyglutamylatable MTX
